Results taken from PubChem BioAssay AID2060620 (Molecular Pharmacology Branch, DTP, NCI, 2025).
Values joined by “and” are separate entries in the source; they are usually repeats but may differ in a detail not shown here. Equal values may be shown once.

System: 328373-195-R-J1-PDC complex spheroids, viability % test/control
Assay: Anticancer human tumor 328373-195-R-J1-PDC patient-derived head and neck squamous carcinoma cell line growth inhibition [CLK]
Settings: for viability, T/C: stronger effect = lower value; for IC50: curve of compound
From the text: A high-throughput screen of multi-cell type tumor spheroids was designed to identify active combinations of […] and targeted small molecules. Complex spheroids include a stromal component modeled by human endothelial cells (HUVEC) and fibroblasts modeled by human mesenchymal stem cells (MSCs). The concentration ranges selected for each drug and investigational agent were based upon clinically achievable concentrations if the clinical Cmax of the agent was known.
Compounds. The drugs and investigational agents: cirtuvivint (SM08502; NSC835563), CC-671 (NSC850746), vemurafenib (NSC761431), tapotoclax (NSC804041), sotorasib (NSC818433), adagrasib (NSC831453), MRTX-1133 (NSC836407), BAY2416964 (NSC825713), copanlisib (NSC816437), inavolisib (NSC800729), abemaciclib (NSC768073), osimertinib (NSC779217), entinostat (NSC756642), eltanexor (KPT-8602, NSC794443), venetoclax (NSC766270), ceralasertib (NSC777638), bortezomib (NSC756655), olaparib (NSC753686), talazoparib (NSC767125), alisertib (NSC759677), peposertib (NSC802822), gemcitabine (NSC613327), 5-fluorouracil (NSC19893), SN-38 (NSC673596), oxaliplatin (NSC266046), paclitaxel (NSC125973), and doxorubicin (NSC123127), were obtained from the National Cancer Institute (NCI) Developmental Therapeutics Program Chemical Repository. The FDA-approved anticancer drug set is available from the Developmental Therapeutics Program at https://dtp.cancer.gov/organization/dscb/obtaining/available plates.htm. […] The stock solutions were prepared in dimethyl sulfoxide (DMSO, Sigma-Aldrich, St. Louis, MO, cat. D2650), except for the platinum complexes which were prepared in saline (Quality Biological, Gaithersburg, MD, cat. 114-055-101), at 800-fold the tested concentration and stored at -70 degrees C prior to their use. All drugs and investigational agents were tested over a range starting from a high concentration at or near the clinical Cmax and decreasing in half-log increments. If the clinical Cmax for an agent had not been determined, the highest concentration tested was 10 microM.
Cell Culture. All cells were maintained in an incubator at 37 degrees C and 5% CO2 with 95% humidity. The PDC lines were cultured according to standard operating procedures established by the NCI PDMR. Briefly, all PDCs were thawed and cultured in Matrigel-coated flasks prepared with a working solution of 1X Ham's F-12 nutrient mix, without supplementation (Invitrogen, Waltham, MA, cat. 11765054), 100 U/mL penicillin-streptomycin (Invitrogen, cat. 15140122), and 2.5% Matrigel (Corning Inc., Corning, NY, cat. 354248) for the first three passages. The 947758-054-R-J2-PDC line was cultured in 6B/Colon 1A media, which includes advanced DMEM/F-12 (Thermo Fisher Scientific, cat. 12634028), 10 mM HEPES (Thermo Fisher Scientific, cat. 15630080), 1X GlutaMAX supplement (Thermo Fisher Scientific, cat. 35050061), 0.1 mg/mL primocin (InvivoGen, cat. ant-pm-2), 10% defined fetal bovine serum, heat inactivated (HyClone Laboratories Inc., cat. SH30070.03HI), 1.25 mM N-Acetyl-L-cysteine (Sigma-Aldrich, cat. A9165), 10 mM nicotinamide (Sigma-Aldrich, cat. N0636), 1X B-27 supplement (Thermo Fisher Scientific, cat. 17504044), 1X N-2 supplement (Thermo Fisher Scientific, cat. 17502048), and 10 microM Y-27632 dihydrochloride (Tocris Bioscience, cat. 1254). The 876862-298-R-J1-PDC was cultured in 6E media, which includes all 6B/Colon 1A media components plus 50% L-WRN conditioned media (ATCC, cat. CRL-3276), 50 ng/mL recombinant human EGF recombinant protein (hEGF; Thermo Fisher Scientific, cat. PHG0311), 10 ng/mL recombinant human fibroblast growth factor 10 (hGFG-10; PeproTech, cat. 100-26), 1 ng/mL recombinant human fibroblast growth factor 2 (hFGF-2; PeproTech, cat. 100-18B), and 1 µM prostaglandin E2 (PGE2; Tocris, cat. 2296). The 227483-062-R1-J1-PDC line was cultured in Panc media, containing all 6E components except hFGF-2, with the addition of 500 nM SB-431542 (Selleckchem, cat. S1067) and 10 nM gastrin (Tocris, cat. 3006). […]
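Also: spheroids exposed to the agents for 7 days.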

In the case of `CNC(=O)c1ccc(Nc2nc(OC3CCCC3)c3c(-c4ccc5nc(C)oc5c4)c[nH]c3n2)c(OC)c1`, the viability, T/C (compound 0.1 µM) is reported as 12.1% [middle of 12 runs], the viability, T/C (compound 0.316 µM) is reported as 10.1% [middle of 11 runs] and the viability, T/C (compound 1 µM) is reported as 9.35% [middle of 12 runs]. For the same molecule, the viability, T/C (compound 3.16 µM) was 9.17% [middle of 12 runs] and the viability, T/C (compound 10 µM) was 11.8% [middle of 12 runs].

In the case of `COc1ccc([C@@H](O)c2cc(-c3ncnc4cc(N5CCOCC5)ccc34)c(F)cc2Cl)nn1`, the viability, T/C (compound 0.0316 µM) is reported as 92.4% and 111%, the viability, T/C (compound 0.1 µM) is reported as 91.4% and 93% and the viability, T/C (compound 0.316 µM) is reported as 88% and 80%. For the same molecule, the viability, T/C (compound 1 µM) was 86.8% and 84.3%, the viability, T/C (compound 3.16 µM) was 76% and 71.4% and the viability, T/C (compound 10 µM) was 48.9% and 47.2%. For the same molecule, the IC50 was 9.71 µM and > 10 µM.

With `COc1cccc2c1C(=O)c1c(O)c3c(c(O)c1C2=O)CC(O)(C(=O)CO)CC3OC1CC(N)C(O)C(C)O1` (centres undefined) the viability, T/C (compound 0.0316 µM) was 14.6% and 11.2%, the viability, T/C (compound 0.1 µM) was 11.1% and 6.08% and the viability, T/C (compound 0.316 µM) was 1.12% and 2.35%. For the same molecule, the viability, T/C (compound 1 µM) was 0.18% and 1.14%, the viability, T/C (compound 3.16 µM) was 2.47% and 0.1% and the viability, T/C (compound 10 µM) was 1.82% and 1.43%. For the same molecule, the IC50 was < 0.0316 µM.
